Measured values reported in US9024013B2, “Method for purifying rocuronium bromide” (Zhejiang Huahai Pharmaceutical Co., Ltd, priority 2011, dated 2015).

Assay: Storage stability at room temperature of rocuronium bromide samples (related substances by HPLC)
Assay type: physicochemical
Settings: for Impurity A, substances involved (HPLC) / Impurity C, substances involved (HPLC) / Total impurities, substances involved (HPLC) / Single unknown impurity, substances involved (HPLC): room temperature storage

C=CC[N+]1([C@H]2C[C@H]3[C@@H]4CC[C@H]5C[C@H](O)[C@@H](N6CCOCC6)C[C@]5(C)[C@H]4CC[C@]3(C)[C@H]2OC(C)=O)CCCC1 [rocuronium bromide]
hydrolyzed impurities after storage (versus USP33 limits) (moisture 4% or more, storage period of about 10 days at room temperature): out of limits | levels of impurities after storage (moisture controlled to about 0.5%, storage period of one month at room temperature): substantially unchanged | level of impurities after storage (purified by the method of the invention, moisture 4% or less, preferably 0.5% or less, one month at room temperature): substantially unchanged | Impurity A, substances involved (HPLC) (sample moisture 0.5%, Day 0): 0.02% | Impurity C, substances involved (HPLC) (sample moisture 0.5%, Day 0): 0.06% | Total impurities, substances involved (HPLC) (sample moisture 0.5%, Day 0): 0.08% | Impurity A, substances involved (HPLC) (sample moisture 0.5%, Day 10): 0.02% | Impurity C, substances involved (HPLC) (sample moisture 0.5%, Day 10): 0.06% | Total impurities, substances involved (HPLC) (sample moisture 0.5%, Day 10): 0.08% | Impurity A, substances involved (HPLC) (sample moisture 0.5%, Day 20): 0.03% | Impurity C, substances involved (HPLC) (sample moisture 0.5%, Day 20): 0.06% | Total impurities, substances involved (HPLC) (sample moisture 0.5%, Day 20): 0.09% | Impurity A, substances involved (HPLC) (sample moisture 0.5%, Day 30): 0.03% | Impurity C, substances involved (HPLC) (sample moisture 0.5%, Day 30): 0.06% | Total impurities, substances involved (HPLC) (sample moisture 0.5%, Day 30): 0.09% | Impurity A, substances involved (HPLC) (sample moisture 4.5%, Day 0): 0.02% | Impurity C, substances involved (HPLC) (sample moisture 4.5%, Day 0): 0.06% | Total impurities, substances involved (HPLC) (sample moisture 4.5%, Day 0): 0.08% | Impurity A, substances involved (HPLC) (sample moisture 4.5%, Day 10): 0.25% | Impurity C, substances involved (HPLC) (sample moisture 4.5%, Day 10): 0.36% | Single unknown impurity, substances involved (HPLC) (sample moisture 4.5%, Day 10): 0.12% | Total impurities, substances involved (HPLC) (sample moisture 4.5%, Day 10): 0.73% | Impurity A, substances involved (HPLC) (sample moisture 4.5%, Day 20): 0.30% | Impurity C, substances involved (HPLC) (sample moisture 4.5%, Day 20): 0.40% | Single unknown impurity, substances involved (HPLC) (sample moisture 4.5%, Day 20): 0.20% | Total impurities, substances involved (HPLC) (sample moisture 4.5%, Day 20): 0.90% | Impurity A, substances involved (HPLC) (sample moisture 4.5%, Day 30): 0.35% | Impurity C, substances involved (HPLC) (sample moisture 4.5%, Day 30): 0.50% | Single unknown impurity, substances involved (HPLC) (sample moisture 4.5%, Day 30): 0.20% | Total impurities, substances involved (HPLC) (sample moisture 4.5%, Day 30): 1.05%
